Data: the NIST ThermoML archive (doi:10.1016/j.jct.2016.10.023)

Assay: xn = mol fraction of the nth substance listed
Conditions: Constant-volume piezometry

CCCCC [pentane] + CCCO
Conditions | mass density [kg/m3]
433.15 K, 35839 kPa, Liquid, x1 = 0.5 | 609.23
433.15 K, 36095 kPa, Liquid, x1 = 0.2 | 661.31
433.15 K, 41420 kPa, Liquid, x1 = 0.8 | 572.89
437.15 K, 2040 kPa, Gas, x1 = 0.8 | 58.65
438.15 K, 1323 kPa, Gas, x1 = 0.5 | 30.1
438.15 K, 2052 kPa, Gas, x1 = 0.8 | 58.65
438.15 K, 2515 kPa, Liquid, x1 = 0.5 | 509.1
440.15 K, 2121 kPa, Liquid, x1 = 0.2 | 584.41
443.15 K, 781 kPa, Gas, x1 = 0.5 | 15.58
443.15 K, 1062 kPa, Gas, x1 = 0.8 | 22.61
443.15 K, 1353 kPa, Gas, x1 = 0.5 | 30.1
443.15 K, 1529 kPa, Gas, x1 = 0.8 | 36.83
443.15 K, 2108 kPa, Gas, x1 = 0.8 | 58.64
443.15 K, 3419 kPa, Liquid, x1 = 0.2 | 584.3
443.15 K, 4067 kPa, Liquid, x1 = 0.5 | 508.96
443.15 K, 5776 kPa, Liquid, x1 = 0.5 | 521.85
443.15 K, 6119 kPa, Liquid, x1 = 0.8 | 468.84
443.15 K, 7864 kPa, Liquid, x1 = 0.2 | 598.01
443.15 K, 11620 kPa, Liquid, x1 = 0.8 | 498.47
443.15 K, 13293 kPa, Liquid, x1 = 0.5 | 550.88
443.15 K, 15549 kPa, Liquid, x1 = 0.2 | 617.55
443.15 K, 19116 kPa, Liquid, x1 = 0.8 | 523.16
443.15 K, 24271 kPa, Liquid, x1 = 0.5 | 577.21
443.15 K, 29321 kPa, Liquid, x1 = 0.2 | 638.71
443.15 K, 31113 kPa, Liquid, x1 = 0.5 | 589.73
443.15 K, 32587 kPa, Liquid, x1 = 0.8 | 550.89
443.15 K, 37375 kPa, Liquid, x1 = 0.5 | 600.38
443.15 K, 43094 kPa, Liquid, x1 = 0.2 | 660.83
446.15 K, 2393 kPa, Gas, x1 = 0.8 | 74.06
447.15 K, 1740 kPa, Gas, x1 = 0.5 | 40.63
448.15 K, 1748 kPa, Gas, x1 = 0.5 | 40.63
448.15 K, 2548 kPa, Liquid, x1 = 0.9 | 408.95
448.15 K, 2624 kPa, Liquid, x1 = 0.8 | 419.92
449.15 K, 2796 kPa, Liquid, x1 = 0.8 | 419.9
451.15 K, 2529 kPa, Gas, x1 = 0.9 | 83.67
452.15 K, 2545 kPa, Gas, x1 = 0.9 | 83.66
453.15 K, 804 kPa, Gas, x1 = 0.5 | 15.57
453.15 K, 1101 kPa, Gas, x1 = 0.8 | 22.6
453.15 K, 1255 kPa, Gas, x1 = 0.2 | 25.01
453.15 K, 1405 kPa, Gas, x1 = 0.5 | 30.08
453.15 K, 1584 kPa, Gas, x1 = 0.8 | 36.81
453.15 K, 1789 kPa, Gas, x1 = 0.5 | 40.62
453.15 K, 2048 kPa, Gas, x1 = 0.5 | 51.26
453.15 K, 2206 kPa, Gas, x1 = 0.8 | 58.61
453.15 K, 2494 kPa, Gas, x1 = 0.8 | 74.04
453.15 K, 2562 kPa, Gas, x1 = 0.9 | 83.66
453.15 K, 3375 kPa, Liquid, x1 = 0.9 | 408.84
453.15 K, 3511 kPa, Liquid, x1 = 0.8 | 419.81
453.15 K, 7204 kPa, Liquid, x1 = 0.5 | 508.66
453.15 K, 7807 kPa, Liquid, x1 = 0.2 | 583.93
453.15 K, 8728 kPa, Liquid, x1 = 0.8 | 468.58
453.15 K, 9366 kPa, Liquid, x1 = 0.5 | 521.54
453.15 K, 12785 kPa, Liquid, x1 = 0.2 | 597.62
453.15 K, 14688 kPa, Liquid, x1 = 0.8 | 498.18
453.15 K, 17282 kPa, Liquid, x1 = 0.5 | 550.54
453.15 K, 21030 kPa, Liquid, x1 = 0.2 | 617.14
453.15 K, 22882 kPa, Liquid, x1 = 0.8 | 522.84
453.15 K, 28840 kPa, Liquid, x1 = 0.5 | 576.84
453.15 K, 34516 kPa, Liquid, x1 = 0.2 | 638.29
453.15 K, 37125 kPa, Liquid, x1 = 0.8 | 550.54
455.15 K, 2058 kPa, Gas, x1 = 0.5 | 51.26
455.15 K, 2617 kPa, Liquid, x1 = 0.5 | 469.97
459.15 K, 2107 kPa, Liquid, x1 = 0.2 | 549.17
459.25 K, 2109 kPa, Liquid, x1 = 0.2 | 549.17
460.15 K, 2449 kPa, Liquid, x1 = 0.2 | 549.14
461.15 K, 3036 kPa, Gas, x1 = 0.8 | 106.72
463.15 K, 825 kPa, Gas, x1 = 0.5 | 15.56
463.15 K, 1134 kPa, Gas, x1 = 0.8 | 22.59
463.15 K, 1296 kPa, Gas, x1 = 0.2 | 25
463.15 K, 1450 kPa, Gas, x1 = 0.5 | 30.07
463.15 K, 1641 kPa, Gas, x1 = 0.8 | 36.79
463.15 K, 1866 kPa, Gas, x1 = 0.5 | 40.6
463.15 K, 2150 kPa, Gas, x1 = 0.5 | 51.24
463.15 K, 2308 kPa, Gas, x1 = 0.8 | 58.58
463.15 K, 2637 kPa, Gas, x1 = 0.8 | 74
463.15 K, 2727 kPa, Gas, x1 = 0.9 | 83.62
463.15 K, 3075 kPa, Liquid, x1 = 0.5 | 452.77
463.15 K, 3080 kPa, Gas, x1 = 0.8 | 106.71
463.15 K, 3117 kPa, Liquid, x1 = 0.9 | 355.23
463.15 K, 3523 kPa, Liquid, x1 = 0.2 | 549.04
463.15 K, 3571 kPa, Liquid, x1 = 0.5 | 459.88
463.15 K, 4516 kPa, Liquid, x1 = 0.5 | 469.76
463.15 K, 5048 kPa, Liquid, x1 = 0.9 | 408.62
463.15 K, 5052 kPa, Liquid, x1 = 0.9 | 408.62
463.15 K, 5310 kPa, Liquid, x1 = 0.8 | 419.58
463.15 K, 10451 kPa, Liquid, x1 = 0.5 | 508.36
463.15 K, 11344 kPa, Liquid, x1 = 0.8 | 468.31
463.15 K, 12276 kPa, Liquid, x1 = 0.2 | 583.56
463.15 K, 12696 kPa, Liquid, x1 = 0.5 | 521.23
463.15 K, 17686 kPa, Liquid, x1 = 0.2 | 597.23
463.15 K, 17835 kPa, Liquid, x1 = 0.8 | 497.88
463.15 K, 20989 kPa, Liquid, x1 = 0.5 | 550.21
463.15 K, 26488 kPa, Liquid, x1 = 0.2 | 616.73
463.15 K, 26685 kPa, Liquid, x1 = 0.8 | 522.53
463.15 K, 33534 kPa, Liquid, x1 = 0.5 | 576.47
463.15 K, 41577 kPa, Liquid, x1 = 0.8 | 550.2
463.15 K, 41859 kPa, Liquid, x1 = 0.2 | 637.82
464.15 K, 3225 kPa, Liquid, x1 = 0.9 | 355.21
465.15 K, 3139 kPa, Gas, x1 = 0.9 | 123.69
466.15 K, 3167 kPa, Gas, x1 = 0.9 | 123.69
468.15 K, 2722 kPa, Gas, x1 = 0.5 | 72.79
468.15 K, 3224 kPa, Gas, x1 = 0.9 | 123.67
468.15 K, 3337 kPa, Liquid, x1 = 0.5 | 442.3
468.15 K, 3480 kPa, Liquid, x1 = 0.8 | 346.36
468.15 K, 3796 kPa, Liquid, x1 = 0.8 | 362.98
469.15 K, 3297 kPa, Gas, x1 = 0.9 | 134.47
469.15 K, 3585 kPa, Liquid, x1 = 0.8 | 346.34
470.15 K, 2757 kPa, Gas, x1 = 0.5 | 72.78
470.15 K, 3441 kPa, Liquid, x1 = 0.9 | 310.06
470.15 K, 3577 kPa, Liquid, x1 = 0.9 | 332
473.15 K, 846 kPa, Gas, x1 = 0.5 | 15.56
473.15 K, 1166 kPa, Gas, x1 = 0.8 | 22.58
473.15 K, 1339 kPa, Gas, x1 = 0.2 | 24.99
473.15 K, 1500 kPa, Gas, x1 = 0.5 | 30.05
473.15 K, 1696 kPa, Gas, x1 = 0.8 | 36.78
473.15 K, 1943 kPa, Gas, x1 = 0.5 | 40.58
473.15 K, 2238 kPa, Gas, x1 = 0.5 | 51.21
473.15 K, 2408 kPa, Gas, x1 = 0.8 | 58.55
473.15 K, 2703 kPa, Gas, x1 = 0.5 | 67.68
473.15 K, 2775 kPa, Gas, x1 = 0.8 | 73.97
473.15 K, 2808 kPa, Gas, x1 = 0.5 | 72.77
473.15 K, 2888 kPa, Gas, x1 = 0.9 | 83.58
473.15 K, 3309 kPa, Gas, x1 = 0.8 | 106.65
473.15 K, 3339 kPa, Liquid, x1 = 0.5 | 418.35
473.15 K, 3349 kPa, Gas, x1 = 0.9 | 123.64
473.15 K, 3414 kPa, Gas, x1 = 0.9 | 134.44
473.15 K, 3511 kPa, Gas, x1 = 0.9 | 164.35
473.15 K, 3553 kPa, Gas, x1 = 0.9 | 189.91
473.15 K, 3564 kPa, Gas, x1 = 0.9 | 202.87

Liquid
Conditions | mass density [kg/m3]
438.95 K, x1 = 0.2 | 584.46
446.85 K, x1 = 0.8 | 419.95
447.55 K, x1 = 0.9 | 408.96
454.85 K, x1 = 0.5 | 469.97
458.15 K, x1 = 0.2 | 549.2
462.15 K, x1 = 0.5 | 452.82
462.85 K, x1 = 0.9 | 355.24
463.55 K, x1 = 0.8 | 363.07
466.15 K, x1 = 0.5 | 442.34
467.15 K, x1 = 0.8 | 346.37
467.15 K, x1 = 0.9 | 334.99
470.15 K, x1 = 0.8 | 334.76
470.15 K, x1 = 0.9 | 313.16
470.85 K, x1 = 0.9 | 302.48
471.25 K, x1 = 0.9 | 282.74
471.95 K, x1 = 0.9 | 244.86
472.05 K, x1 = 0.9 | 241.54
472.15 K, x1 = 0.9 | 237.12
472.65 K, x1 = 0.8 | 316.17
